“Also recorded” adds a separate entry of the source.
Experiments:
[1] = test system: proteome of MDA-MB-231 cells; experiment: Global proteomics profiling by LC-MS/MS; format: cell-based, human; conditions: for number of proteins significantly affected / abundance of miR-21 regulated proteins: 1 and 2 at 1 μM; for number of proteins significantly affected: LNA-21 0.1 μM, 48 h, 3000 proteins detected; for abundance of miR-21 regulated proteins: LNA-21 100 nM; for proteins associated with miR-let-7: control
Procedure: Global Proteomics Profiling by Using LC-MS/MS. MDA-MB-231 cells (~60% confluency) were treated with 1 (1 μM), 2 (1 μM), LNA-21 (0.1 μM), or vehicle for 48 h. After washing with 1×DPBS, the cells were harvested by scraping and resuspended in 1×DPBS. They were lysed by sonication and centrifuged at 14,000×g for 15 min. Protein concentrations were determined by a Bradford assay (Bio-Rad). Protein samples (340 μg) were denatured with 6 M urea in 50 mM NH4HCO3, pH 8, reduced with 10 mM TCEP (tris(2-carboxyethyl)phosphine hydrochloride) for 30 min, and alkylated with 25 mM iodoacetamide for 30 min in the dark. The samples were diluted to a final concentration of 2 M urea with 50 mM NH4HCO3, pH 8, and CaCl2) was added to a final concentration of 1 mM. The protein mixture was digested with tiypsin (1.5 μL of 0.5 μg/μL) overnight at 37° C. The digested protein samples were acidified with acetic acid and desalted over a self-packed C18 spin column. After lyophilization, the samples were analyzed by LC-MS/MS as described below.
LC-MS/MS Analysis and MaxQuant Analysis. The lyophilized protein obtained above was resuspended in 0.1% formic acid in water and analyzed by using an EASY-nLC 1200 nano-UHPLC coupled to Q Exactive HF-X Quadrupole-Orbitrap mass spectrometer (Thermo Scientific) as previously reported^6. Obtained spectra were then analyzed with MaxQuant (V1.6.1.0). Spectra were searched against the human proteome (Uniprot) and common contaminants. The search tolerance was set to 20 ppm for the first peptide search and 10 ppm for the main peptide search. The false discovery rate (FDR) for proteins, peptides and sites identification was set at 5%. All the parameters were set as previously reported^6.
Principal Component Analysis. Principal component analysis (PCA) was completed on the proteomics data that included 2,315 proteins that were detected in all samples after the technical replications were averaged, to visualize overall differences across the samples. R build in package prcomp^10 was used to perform the analysis, where scale was set to TRUE.

[2] = test system: wild type (WT) mice (Col4a3+/+); experiment: Wild type mice, control for Alport studies; format: in vivo, mouse
Procedure: Alport Mice Studies. Alport mice (Col4a3^−/−) and wild type (WT) mice (Col4a3^+/+) were obtained from the breeding of heterozygous […]. Urine was collected 1 day before the treatment, considered as Day 1. The treatment started at Day 2, at around 4 weeks of age. Alport mice were treated with vehicle or 2 as described for NOD/SCID mice in the “In Vivo Studies to Assess Metastasis of Breast Cancer to the Lung” section. Urine was collected every other day for analysis of albumin or creatine levels. After 6 weeks of treatment, the mice were euthanized on Day 43. One kidney was frozen in −80° C. for Western blot and RT-qPCR analyses. The other kidney was fixed in formalin for paraffin-embedding sectioning and further staining.
Evaluation of Kidney Function. The concentration of urine albumin was determined by using a Mouse Albumin ELISA Kit (Bethyl Laboratories Inc, E99-134) per the manufacturer's protocol. Urine creatinine level was measured by using a Urinary Creatinine Assay Kit (Fisher Scientific, 50-673-569) per the manufacturer's protocol.
Kidney Tissue Histology. Silver staining, PAS staining, and PPARα staining were performed by Histology Core at Scripps Research Florida. The anti-PPARα (Abcam, ab215270) was used at 1:1000 dilution. FISH imaging of miR-21 and pre-miR-21 were completed as described in “Lung Tissue Histology”.

[3] = test system: 3×2 RNA internal loop library (3×2 ILL); experiment: AbsorbArray 2DCS selection with Inforna fitness analysis; format: binding, human
Procedure: Construction of AbsorbArray Small Molecule Microarrays. Microarrays were constructed as previously reported^4. Briefly, a 1% agarose solution was poured onto a glass slide and dried on the benchtop. A 200 nL aliquot of 68 hit compounds (10 mM in DMSO) was pinned onto the array from a 384-well plate using Biomek NXP Laboratory Automation Workstation. Slides were then dried overnight to obtain a thin, invisible agarose layer. Slides were washed three times with 1×PBST^5 and then three times with nanopure water. Slides were dried completely in the air before RNA selection, completed by Two-Dimensional Combinatorial Screening (2DCS).
RNA Selection and Screening by 2DCS. The 3×2 RNA ILL was 5′-end ^32P-labeled as previously described^7 and 2DCS selections were completed as previously described 4. All oligonucleotides were folded as described in the “Solution-based Dye Displacement Assay” section. Small molecule microarrays were pre-equilibrated by 3 mL 1× AB2 for 5 min. After removing the pre-equilibration buffer, 5′-end labeled folded 3×2 RNA ILL (~50,000 cpm) was added in 3 mL 1× AB2 containing 1 mM MgCl2 in the presence of competitor oligonucleotides (100 μM each). The oligonucleotide solution was evenly distributed across the microarray surface with a custom-cut piece of Parafilnm. After incubating for 30 min at room temperature, the Parafilm was removed, and the slide was washed gently by submersion in 1× AB2 for 30 s. This washing step was repeated three additional times, and the array was dried on the benchtop for 1 h. […] To harvest and collect the bound RNAs from the ILL, 1 μL of nanopure water was added to each spot. After 30 s, the water drop was absorbed into agarose gel, hydrating it such that it could be excised with a toothpick. The RNAs were eluted from the agarose by simple incubation with water, and then treated with RNase-free DNase I. A unique barcode for each small molecule was installed by reverse transcription (RT). Barcoded RNAs were amplified by PCR, purified, and identified by next-generation sequencing (NGS) using an Ion Proton deep sequencer using PI chips (60-80 million reads) as previously described^2.

| SMILES | PCA similarity of proteome [1] | number of proteins significantly affected [1] | abundance of miR-21 regulated proteins [1] | proteins associated with miR-let-7 [1] | body weight of WT mice ([2]; 56 mg/kg q.o.d., 6 weeks) | PPARα expression in kidneys ([2]; WT mice) | urine albumin normalized to urine creatinine ([2]; WT mice, 56 mg/kg q.o.d.) | number of affected proteins associated with ERK pathways ([1]; 1 μM) | number of binding RNA motifs ([3]; Zobs>8) | Fitness score of A bulge (5'GAC/3'C_G) in the Dicer processing site of pre-miR-21 ([3]; normalized to most significant motif = 100) |
| --- | --- | --- | --- | --- | --- | --- | --- | --- | --- | --- |
| CCOC(=O)C1=C(Nc2ccccc2)S/C(=C\c2ccc(OCCOCCOCCOCCNC(=O)NCCN3CCN(c4ccc5[nH]c(-c6c(N)c7c(F)cccc7[nH]c6=O)nc5c4)CC3)c(O)c2)C1=O [Compound 2, Ribotac-Dovitinib] | more similar to treatment with LNA-21 than 1 | 28 | globally upregulated; also recorded: significant increase in abundance | Neither treatment with 1 nor 2 affected | gained weight at a similar rate as vehicle-treated mice | no significant effect | no effect | – | – | – |
| CN1CCN(c2ccc3nc(-c4c(N)c5c(F)cccc5[nH]c4=O)[nH]c3c2)CC1 [Compound 1, Dovitinib, reference compound] | – | 46 | had no effect; also recorded: no significant changes | Neither treatment with 1 nor 2 affected | – | – | – | 14 | 256 | 85 |

From US12702715B2, “Targeted RNA degradation allows precision repurposing of protein-targeted small molecule medicines to RNA” (University of Florida Research Foundation, Incorporated, priority 2020, dated 2026)
